Assay results reported in PubChem BioAssay (NCI).
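48-hour exposure; five concentrations; linearly interpolated endpoints. Here, GI50 denotes the concentration required for 50% inhibition of growth. TGI marks complete inhibition of growth.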

How the values were obtained:
Test in all cases: NCI-60 cell line screen, 48 h
SK-OV-3 ovarian = system: SK-OV-3 ovarian
NCI/ADR-RES ovarian = system: NCI/ADR-RES ovarian
SNB-75 CNS = system: SNB-75 CNS
A498 renal = system: A498 renal
UACC-62 melanoma = system: UACC-62 melanoma
TK-10 renal = system: TK-10 renal
M14 melanoma = system: M14 melanoma
SK-MEL-28 melanoma = system: SK-MEL-28 melanoma
RXF 393 renal = system: RXF 393 renal
A549 NSCLC = system: A549 NSCLC
HL-60(TB) leukemia = system: HL-60(TB) leukemia
PC-3 prostate = system: PC-3 prostate
BT-549 breast = system: BT-549 breast
SF-539 CNS = system: SF-539 CNS

NC(N)=Nc1ccc(Oc2cccc(Nc3cccc(C(F)(F)F)c3)c2)cn1
GI50 (SK-OV-3 ovarian): 2080 nM | TGI (SK-OV-3 ovarian): 4.27 µM | GI50 (NCI/ADR-RES ovarian): 4.85 µM | TGI (NCI/ADR-RES ovarian): 37.6 µM | GI50 (SNB-75 CNS): 1370 nM | TGI (SNB-75 CNS): 2740 nM | GI50 (A498 renal): 1510 nM | TGI (A498 renal): 3.02 µM | GI50 (UACC-62 melanoma): 1790 nM | TGI (UACC-62 melanoma): 3.4 µM | GI50 (TK-10 renal): 1850 nM | TGI (TK-10 renal): 3.63 µM | GI50 (M14 melanoma): 1760 nM | TGI (M14 melanoma): 3.33 µM | GI50 (SK-MEL-28 melanoma): 1700 nM | TGI (SK-MEL-28 melanoma): 3.16 µM | GI50 (RXF 393 renal): 1760 nM | TGI (RXF 393 renal): 3.39 µM | GI50 (A549 NSCLC): 1880 nM | TGI (A549 NSCLC): 4.42 µM | GI50 (HL-60(TB) leukemia): 2040 nM | TGI (HL-60(TB) leukemia): 4.36 µM | GI50 (PC-3 prostate): 1470 nM | TGI (PC-3 prostate): 2880 nM | GI50 (BT-549 breast): 1760 nM | TGI (BT-549 breast): 3.3 µM | GI50 (SF-539 CNS): 1720 nM | TGI (SF-539 CNS): 3.22 µM
